This note sets out measurements from patent US7273878B2, “Difluoroalkene derivative, pest control agent containing the same, and intermediate therefor” (Kumiai Chemical Industry Co., Ltd., priority 2001, dated 2007).

By mortality is commonly meant the share of the test organisms that died.

Structures are written as SMILES.

What all share (format): in vivo
Data set [1] concerns Tetranychus urticae. Description: Prevention/extermination test against Tetranychus urticae (0.8 ppm). The conditions noted are these: 312 h, 0.8 ppm active ingredient, soybean seedlings inoculated with imago, 25° C., after 13 days, read-out: prevention/extermination titer. The method, then:
(§1) The wettable powder prepared according to the above Preparation Example 2 was diluted with water to a concentration of 500 ppm as a concentration of active ingredient. Soybean seedlings which had previously been inoculated with the imago of Tetranychus urticae were soaked in the test solution, then air dried. The treated soybean seedlings were left at the constant temperature of 25° C. After 13 days from the treatment, the number of surviving mites was counted, and the prevention/extermination titer was calculated according to the formula 2 below.
The wettable powder prepared according to the above Preparation Example 2 was diluted with water to a concentration of 0.8 ppm as a concentration of active ingredient. The same experiment as in Test Example 2 was carried out, and the prevention/extermination titer was calculated according to the formula 2.
(§2) In this test, representative compounds having the acaricidal effect with more than 90 of prevention/extermination titer include compound No. 63, 93, 77, 81, 105, 169, 190, 196 and 208.

A further data set concerns ddy mouse (Slc:ddy). Kind of data set: Oral acute toxicity test. Also on record: key: 0/3 means none of 3 recipient animals died; 1/3 means one out of 3 recipient animals died; 2/3 means 2 out of 3 recipient animals died; 3/3 means all 3 recipient animals died. The settings on record: oral 30 mg/kg, mortality investigated for 7 days; for Test result Female (mortality, animals died out of 3): female ddy mouse; for Test result Male (mortality, animals died out of 3): male ddy mouse. The method, then: Oral acute toxicity test was conducted according to the method described in the guideline in “Guideline for the Preparation of Test Report on the Toxicity Studies”, published by the Ministry of Agriculture, Forestry and Fisheries of Japan. Experimental animals, 3 each of male and female of 7 weeks aged ddy mouse (Slc:ddy), were obtained from SLC Japan Inc. The compounds of the present invention and the reference substances were suspended in 0.5% sodium carboxymethyl cellulose or corn oil to give a 30 (mg/kg) equivalent amount for a dosage of 10 ml per 1 kg of body weight. The suspensions were inoculated using a sonde directly into the stomach of test animals which were fasted for 3 hours before inoculation. The test animals were fasted for additional 3 hours after inoculation, and the mortality of the inoculated animal was investigated for 7 days. In this table, 0/3 means none of 3 recipient animals died, 1/3 means one out of 3 recipient animals died, 2/3 means 2 out of 3 recipient animals died, 3/3 means all 3 recipient animals died.

The test system of data set [2] is Tetranychus urticae. Kind of data set: Prevention/extermination test against Tetranychus urticae (500 ppm). The conditions noted are these: 312 h, 500 ppm active ingredient, soybean seedlings inoculated with imago, 25° C., after 13 days, read-out: prevention/extermination titer (preventive titer). The method, then: as §1, §2
In another data set the test system is Nilaparvata lugenis. Kind of data set: Insecticidal test for Nilaparvata lugenis. The settings on record: 144 h, 500 ppm active ingredient (wettable powder), 4-instar larvae on germinated rice paddy, 25° C., after 6 days, read-out: mortality rate. On the procedure: The wettable powder prepared according to the above Preparation Example 2 was diluted with water to a concentration of 500 ppm as a concentration of active ingredient. After soaking the germinated rice paddy in the test solution, the paddy was transferred into a 60 ml volume of plastic cup. Ten (10) heads of 4-instar larvae of Nilaparvata lugenis were inoculated on the paddy and capped, then left at the constant temperature of 25° C. After 6 days from the inoculation, the number of surviving insects was counted, and mortality rate of the insect was calculated according to the following formula 1. mortality rate (%)=[(10−number of surviving insect in the test field)/10]×100 (1)

Turning to `CC(CCOC(=O)c1cnc(-c2ccccc2)nc1C)=C(F)F` [Compound 93, 4,4-difluoro-3-methyl-3-butenyl 4-methyl-2-phenyl-pyrimidine-5-carboxylate], the pest or weed control at 0.8 ppm in the data set with Tetranychus urticae [1] was over 90%. Besides, in the data set with ddy mouse (Slc:ddy), the “Test result Female (mortality, animals died out of 3)” value (“Test result Female” below) is recorded as 0/3 and the “Test result Male (mortality, animals died out of 3)” value (“Test result Male” below) is listed as 0/3.

Take `O=C(OCCCCC=C(F)F)c1cc2ccccc2s1` [Reference compound D, 6,6-difluoro-5-hexenyl benzo[b]thiophen-2-carboxylate, reference compound]: in the data set with ddy mouse (Slc:ddy), the “Test result Female” value is given as 3/3 and the “Test result Male” value is 3/3.

As for `CC(CCCCOC(=O)c1ccc2c(c1)ncn2CCCCC(C)=C(F)F)=C(F)F` [Compound 35, 6,6-difluoro-5-methyl-5-hexenyl 1-(6,6-difluoro-5-methyl-5-hexenyl)-1H-benzoimidazole-5-carboxylate], the pest or weed control at 500 ppm in the data set on Tetranychus urticae [2] is over 90%.

Regarding `CC(CCCCOC(=O)c1c(-c2ccccc2)noc1C)=C(F)F` [Compound 12, 6,6-difluoro-5-methyl-5-hexenyl 5-methyl-3-phenyl-isoxazole-4-carboxylate], the pest or weed control at 500 ppm in the data set with Tetranychus urticae [2] was over 90%.

For the molecule `Cc1nc(-c2ccccc2)ncc1C(=O)OCCC=C(F)F` [Reference compound C, 4,4-difluoro-3-butenyl 4-methyl-2-phenylpyrimidine-5-carboxylate, reference compound], in the data set with ddy mouse (Slc:ddy), the “Test result Female” value is given as 3/3 and the “Test result Male” value is on record as 3/3.

Regarding `CCCCn1ncc(C(=O)OCCC(C)=C(F)F)c1C` [Compound 203, 4,4-difluoro-3-methyl-3-butenyl 1-butyl-5-methyl-1H-pyrazole-4-carboxylate], the pest or weed control at 500 ppm in the data set with Tetranychus urticae [2] was over 90%.

In the case of `CC(CCCCOC(=O)c1c[nH]c2ccccc12)=C(F)F` [Compound 13, 6,6-difluoro-5-methyl-5-hexenyl 1H-indole-3-carboxylate], in the data set with Tetranychus urticae [2], the pest or weed control at 500 ppm is over 90%.

As for `CC(CCOC(=O)c1sc(C2CCCCC2)nc1C)=C(F)F` [Compound 169, 4,4-difluoro-3-methyl-3-butenyl 2-cyclohexyl-4-methylthiazole-5-carboxylate], the mortality at 500 ppm with Nilaparvata lugenis is at least 90%. The pest or weed control at 0.8 ppm with Tetranychus urticae [1] is over 90%.

As for `CC(CCCCOC(=O)c1cnc2ccccc2n1)=C(F)F` [Compound 32, 6,6-difluoro-5-methyl-5-hexenyl quinoxaline-2-carboxylate], the mortality at 500 ppm with Nilaparvata lugenis was at least 90%. In addition, in the data set on Tetranychus urticae [2], the pest or weed control at 500 ppm is over 90%.

With `O=C(OCCCCC=C(F)F)c1ccc(Cl)nc1` [Reference compound A, 6,6-difluoro-5-hexenyl 6-chloronicotinate, reference compound], in the data set with ddy mouse (Slc:ddy), the “Test result Female” value was 3/3 and the “Test result Male” value is reported as 3/3.

In the case of `CC(CCCCOC(=O)c1ccc2nn(CCCCC(C)=C(F)F)nc2c1)=C(F)F` [Compound 31, 6,6-difluoro-5-methyl-5-hexenyl 2-(6,6-difluoro-5-methyl-5-hexenyl)-2H-benzotriazole-5-carboxylate], in the data set with Tetranychus urticae [2], the pest or weed control at 500 ppm is over 90%.

Consider `CC(CCCCOC(=O)c1ccc2nsnc2c1)=C(F)F` [Compound 42, 6,6-difluoro-5-methyl-5-hexenyl benzo[1,2,5]-thiadiazole-5-carboxylate], for which the pest or weed control at 500 ppm in the data set on Tetranychus urticae [2] is over 90%.

Take `CC(CCCCOC(=O)c1cc2ccccc2cn1)=C(F)F` [Compound 27, 6,6-difluoro-5-methyl-5-hexenyl isoquinoline-3-carboxylate]: the pest or weed control at 500 ppm in the data set with Tetranychus urticae [2] was over 90%.

Take `CC(CCOC(=O)c1cn(-c2ccccc2)nc1C)=C(F)F` [Compound 196, 4,4-difluoro-3-methyl-3-butenyl 3-methyl-1-phenyl-1H-pyrazole-4-carboxylate]: the pest or weed control at 0.8 ppm with Tetranychus urticae [1] was over 90%.

On to `CCCCOc1ncc(C(=O)OCCC(C)=C(F)F)c(C)n1` [Compound 105, 4,4-difluoro-3-methyl-3-butenyl 2-butoxy-4-methyl-pyrimidine-5-carboxylate], for which the pest or weed control at 0.8 ppm with Tetranychus urticae [1] is over 90%. Further, in the data set with ddy mouse (Slc:ddy), the “Test result Female” value was 0/3 and the “Test result Male” value is recorded as 0/3.

As for `CC(CCCCOC(=O)c1n[nH]c2ccccc12)=C(F)F` [Compound 33, 6,6-difluoro-5-methyl-5-hexenyl 1H-indazole-3-carboxylate], the mortality at 500 ppm with Nilaparvata lugenis is at least 90%. Further, in the data set on Tetranychus urticae [2], the pest or weed control at 500 ppm is over 90%.

As for `CCN(c1ccc(C)cc1)c1nc(C)c(C(=O)OCCC(C)=C(F)F)s1` [Compound 185, 4,4-difluoro-3-methyl-3-butenyl 2-(N-ethyl-N-4-tolylamino)-4-methylthiazole-5-carboxylate], in the data set on Tetranychus urticae [2], the pest or weed control at 500 ppm was over 90%.

For `CC(CCOC(=O)c1cc2ccccc2s1)=C(F)F` [Compound 18, 4,4-difluoro-3-methyl-3-butenyl benzo[b]thiophene-2-carboxylate], in the data set with ddy mouse (Slc:ddy), the “Test result Female” value is reported as 0/3 and the “Test result Male” value was 0/3.

As for `CCCCCc1cc(C(=O)OCCC(C)=C(F)F)n(C)n1` [Compound 208, 4,4-difluoro-3-methyl-3-butenyl 2-methyl-5-pentyl-2H-pyrazole-3-carboxylate], the pest or weed control at 0.8 ppm in the data set on Tetranychus urticae [1] was over 90%.

On to `CC(CCCCOC(=O)c1cc2ccccc2s1)=C(F)F` [Compound 3, 6,6-difluoro-5-methyl-5-hexenyl benzo[b]thiophene-2-carboxylate], for which, in the data set with ddy mouse (Slc:ddy), the “Test result Female” value is on record as 0/3 and the “Test result Male” value is listed as 0/3.

With `CC(CCOC(=O)c1sc(-c2ccccc2)nc1C)=C(F)F` [Compound 63, 4,4-difluoro-3-methyl-3-butenyl 4-methyl-2-phenyl-thiazole-5-carboxylate], the pest or weed control at 0.8 ppm in the data set with Tetranychus urticae [1] was over 90%. For the same molecule, in the data set on ddy mouse (Slc:ddy), the “Test result Female” value was 0/3 and the “Test result Male” value is recorded as 0/3.

On to `CC(CCOC(=O)c1cnc(-c2ccccc2)s1)=C(F)F` [Compound 190, 4,4-difluoro-3-methyl-3-butenyl 2-phenylthiazole-5-carboxylate], for which the pest or weed control at 0.8 ppm in the data set on Tetranychus urticae [1] was over 90%.

Regarding `CC(CCCCOC(=O)c1sc(-c2ccccc2)nc1C)=C(F)F` [Compound 29, 6,6-difluoro-5-methyl-5-hexenyl 4-methyl-2-phenyl-thiazole-5-carboxylate], in the data set on ddy mouse (Slc:ddy), the “Test result Female” value was 0/3 and the “Test result Male” value is listed as 0/3.

As to `CC(CCOC(=O)c1cnc(N(C)c2ccccc2)nc1C)=C(F)F` [Compound 119, 4,4-difluoro-3-methyl-3-butenyl 4-methyl-2-(N-methyl-N-phenylamino)pyrimidine-5-carboxylate], in the data set with ddy mouse (Slc:ddy), the “Test result Female” value is listed as 0/3 and the “Test result Male” value was 0/3.

Regarding `CC(CCCCOC(=O)c1cc2ccccc2o1)=C(F)F` [Compound 7, 6,6-difluoro-5-methyl-5-hexenyl benzo[b]furan-2-carboxylate], the pest or weed control at 500 ppm with Tetranychus urticae [2] was over 90%.

As for `CC(CCCCOC(=O)c1cnnc2ccccc12)=C(F)F` [Compound 37, 6,6-difluoro-5-methyl-5-hexenyl cinnoline-4-carboxylate], the pest or weed control at 500 ppm with Tetranychus urticae [2] is over 90%.

For `CCCCOc1ncc(C(=O)OCCC=C(F)F)c(C)n1` [Reference compound B, 4,4-difluoro-3-butenyl 2-butoxy-4-methylpyrimidine-5-carboxylate, reference compound], in the data set on ddy mouse (Slc:ddy), the “Test result Female” value was 3/3 and the “Test result Male” value was 3/3.

For `CC(CCOC(=O)c1cc(-c2ccccc2)n(C)n1)=C(F)F` [Compound 194, 4,4-difluoro-3-methyl-3-butenyl 1-methyl-5-phenyl-1H-pyrazole-3-carboxylate], the pest or weed control at 500 ppm in the data set with Tetranychus urticae [2] was over 90%.

For `CC(CCCCOC(=O)c1ccc(Cl)nc1)=C(F)F` [Compound 1, 6,6-di-fluoro-5-methyl-5-hexenyl 6-chloronicotinate], the mortality at 500 ppm in the data set with Nilaparvata lugenis was at least 90%. In the data set with ddy mouse (Slc:ddy), the “Test result Female” value is 0/3 and the “Test result Male” value is listed as 0/3.
